Here are results for 23 compounds from US10844044B2 (Vanderbilt University, priority 2018, dated 2020).

Molecules are shown by their SMILES. Read-outs that look alike come from different tables or passages of the source.

The test system of experiment [1] is MV4:11 human cancer cell lines. Put plainly: Anti-proliferative activity, CellTiter-Glo viability assay, 7 day protocol. Type of experiment: cell-based. As to conditions: Homo sapiens, MV4-11, 168 h, MV4:11 cells, 7 day incubation, read-out: GI50 on cellular proliferation of MV4:11 human cancer cell lines. A digest of the protocol:
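MV4:11 cells seeded at 3600 cells/ml and exposed to compounds for 7 days, 0.1% DMSO final. Viability measured by CellTiter-Glo luminescence. GI50 from three biological replicates, each in technical triplicate, given as mean ± S.E.M.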
Background: ATP-based viability assays read luminescence as a measure of living cells.

The target of the next experiment is WDR5 (Homo sapiens (Human), UniProt P61964). Put plainly: TR-FRET binding assay (displacement of 10mer-Thr-FAM probe from WDR5). A general note: TR-FRET usually uses a lanthanide donor and a delayed reading to cut background.
Setting [2] is: read-out: Ki for Inhibition of WDR5 by TR-FRET assay.
[3] abbreviates: read-out: Ki for Inhibition of WDR5 by TR-FRET assay, TR-FRET, 10mer-Thr-FAM probe, WDR5-His tag 2 nM, pH 7.0.

By Ki is commonly meant the dissociation constant of the complex between target and ligand, obtained from inhibition or displacement. For the compound `COc1cc(CNC(=O)c2cc(Cn3ccn(C)c3=N)cc(-c3ncc(F)cc3C)c2)cc(OC)c1` [Example 67, N-(3,5-Dimethoxybenzyl)-3-(5-fluoro-3-methylpyridin-2-yl)-5-((2-imino-3-methyl-2,3-dihydro-1H-imidazol-1-yl)methyl)benzamide], the GI50 in experiment [1] amounted to 3800 nM. In addition, the Ki on WDR5 (setting [2]) is 3.9 nM.
With `COc1cc(OC)cc(C(NC(=O)c2cc(Cn3ccn(C)c3=N)cc(-c3ncc(F)cc3C)c2)C2CC2)c1` (stereo not shown) [Example 68, N-(Cyclopropyl(3,5-dimethoxyphenyl)methyl)-3-(5-fluoro-3-methylpyridin-2-yl)-5-((2-imino-3-methyl-2,3-dihydro-1H-imidazol-1-yl)methyl)benzamide], in experiment [1], the GI50 is 2700 nM. Besides, at WDR5 (setting [2]), the Ki stood at 0.35 nM.
Take `Cc1ccnc(C(NC(=O)c2cc(Cn3ccn(C)c3=N)cc(-c3ncc(F)cc3C)c2)C2CC2)c1` (stereo not shown) [Example 69]: the GI50 in experiment [1] is 5100 nM. On WDR5 (setting [3]), the Ki worked out at 2.4 nM.
In the case of `Cc1ccnc(C(NC(=O)c2cc(Cn3ccn(C)c3=N)cc(-c3ccc(F)cc3OC(F)F)c2)C2CC2)c1` (stereo not shown) [Example 71, N-(Cyclopropyl(4-methylpyridin-2-yl)methyl)-2′-(difluoromethoxy)-4′-fluoro-5-((2-imino-3-methyl-2,3-dihydro-1H-imidazol-1-yl)methyl)-[1,1′-biphenyl]-3-carboxamide], the GI50 in experiment [1] stood at 1900 nM. Further, the Ki on WDR5 (setting [3]) amounted to 0.33 nM.
Consider `Cn1ccn(Cc2cc(C(=O)NC(CC(=O)O)c3ccc(Cl)c(Cl)c3)cc(-c3ccc(F)cc3C(F)(F)F)c2)c1=N` (stereo not shown) [Example 84, 3-(3,4-Dichlorophenyl)-3-(4′-fluoro-5-((2-imino-3-methyl-2,3-dihydro-1H-imidazol-1-yl)methyl)-2′-(trifluoromethyl)-[1,1′-biphenyl]-3-carboxamido)propanoic acid], for which, in experiment [1], the GI50 was determined as 2100 nM. Also, on WDR5 (setting [3]), the Ki amounted to 0.12 nM.
Turning to `Cc1ccnc([C@@H](NC(=O)c2cc(Cn3ccn(C)c3=N)cc(-c3ccc(F)cc3C)c2)C2CC2)c1` [Example 91, (S)—N-(Cyclopropyl(4-methylpyridin-2-yl)methyl)-4′-fluoro-5-((2-imino-3-methyl-2,3-dihydro-1H-imidazol-1-yl)methyl)-2′-methyl-[1,1′-biphenyl]-3-carboxamide], the GI50 in experiment [1] came out at 210 nM. The inhibition constant (Ki) at WDR5 (setting [3]) is under 0.1 nM.
Taken in the same sequence, the figures for `COc1cc(CNC(=O)c2cc(Cn3ccn(C)c3=N)cc(-c3ccc(F)cc3C(F)(F)F)c2)cc(OC)c1` [Example 98, N-(3,5-Dimethoxybenzyl)-4′-fluoro-5-((2-imino-3-methyl-2,3-dihydro-1H-imidazol-1-yl)methyl)-2′-(trifluoromethyl)-[1,1′-biphenyl]-3-carboxamide] were 160 nM and 0.06 nM.
Consider `Cn1ccn(Cc2cc(C(=O)NC(CC(=O)O)c3ccc(Cl)c(Cl)c3)nc(-c3ccc(F)cc3C(F)(F)F)c2)c1=N` (stereo not shown) [Example 104, 3-(3,4-Dichlorophenyl)-3-(6-(4-fluoro-2-(trifluoromethyl)phenyl)-4-((2-imino-3-methyl-2,3-dihydro-1H-imidazol-1-yl)methyl)picolinamido)propanoic acid], for which, in experiment [1], the GI50 turned out to be 14000 nM. In addition, on WDR5 (setting [3]), the Ki came out at 0.13 nM.
Taken in the same sequence, the figures for `Cc1ccnc(C(NC(=O)c2cc(Cn3ccn(C)c3=N)cc(-c3ccc(F)cc3C(F)(F)F)c2F)C2CC2)c1` (stereo not shown) [Example 105, N-(Cyclopropyl(4-methylpyridin-2-yl)methyl)-2,4′-difluoro-5-((2-imino-3-methyl-2,3-dihydro-1H-imidazol-1-yl)methyl)-2′-(trifluoromethyl)-[1,1′-biphenyl]-3-carboxamide] were 400 nM and under 0.1 nM.
Regarding `Cc1cc([C@@H](NC(=O)c2cc(Cn3ccn(C)c3=N)cc(-c3ccc(F)cc3C(F)(F)F)n2)C2CC2)ccc1F` [Example 107, (S)—N-(Cyclopropyl(4-fluoro-3-methylphenyl)methyl)-6-(4-fluoro-2-(trifluoromethyl)phenyl)-4-((2-imino-3-methyl-2,3-dihydro-1H-imidazol-1-yl)methyl)picolinamide], in experiment [1], the GI50 worked out at 950 nM. Further, the Ki on WDR5 (setting [3]) was determined as 0.23 nM.
On to `COc1cc(CNC(=O)c2cc(Cn3ccn(C)c3=N)cc(-c3ccc(F)cc3C(F)(F)F)c2F)cc(OC)c1` [Example 108, N-(3,5-Dimethoxybenzyl)-2,4′-difluoro-5-((2-imino-3-methyl-2,3-dihydro-1H-imidazol-1-yl)methyl)-2′-(trifluoromethyl)-[1,1′-biphenyl]-3-carboxamide], for which, in experiment [1], the GI50 is 310 nM. Further, the Ki on WDR5 (setting [3]) is under 0.1 nM.
As for `Cc1cc(CNC(=O)c2cc(Cn3ccn(C)c3=N)cc(-c3ccc(F)cc3C(F)(F)F)c2F)ccc1Cl` [Example 111, N-(4-Chloro-3-methylbenzyl)-2,4′-difluoro-5-((2-imino-3-methyl-2,3-dihydro-1H-imidazol-1-yl)methyl)-2′-(trifluoromethyl)-[1,1′-biphenyl]-3-carboxamide], the GI50 in experiment [1] came to 300 nM. Also, the Ki on WDR5 (setting [3]) is under 0.1 nM.
Consider `CCn1ccn(Cc2cc(C(=O)N[C@H](c3ccc(F)c(C)c3)C3CC3)cc(-c3cccnc3C(F)(F)F)c2)c1=N` [Example 114, (S)—N-(Cyclopropyl(4-fluoro-3-methylphenyl)methyl)-3-((3-ethyl-2-imino-2,3-dihydro-1H-imidazol-1-yl)methyl)-5-(2-(trifluoromethyl)pyridin-3-yl)benzamide], for which the GI50 in experiment [1] amounted to 300 nM. Further, the Ki at WDR5 (setting [2]) was under 0.1 nM.
On to `Cc1cc([C@@H](NC(=O)c2cc(Cn3ccn(C4CC4)c3=N)cc(-c3cccnc3C(F)(F)F)c2)C2CC2)ccc1F` [Example 115, (S)—N-(Cyclopropyl(4-fluoro-3-methylphenyl)methyl)-3-((3-cyclopropyl-2-imino-2,3-dihydro-1H-imidazol-1-yl)methyl)-5-(2-(trifluoromethyl)pyridin-3-yl)benzamide], for which, in experiment [1], the GI50 is under 100 nM. Also, the Ki on WDR5 (setting [3]) was under 0.1 nM.
For the compound `CCn1ccn(Cc2cc(C(=O)NCc3cc(OC)cc(OC)c3)cc(-c3ccc(F)cc3C)c2)c1=N` [Example 116, N-(3,5-Dimethoxybenzyl)-5-((3-ethyl-2-imino-2,3-dihydro-1H-imidazol-1-yl)methyl)-4′-fluoro-2′-methyl-[1,1′-biphenyl]-3-carboxamide], the GI50 in experiment [1] is 570 nM. Also, the Ki on WDR5 (setting [3]) was determined as 0.4 nM.
For `COc1cc(CNC(=O)c2cc(Cn3ccn(C4CC4)c3=N)cc(-c3ccc(F)cc3C)c2)cc(OC)c1` [Example 117, 5-((3-Cyclopropyl-2-imino-2,3-dihydro-1H-imidazol-1-yl)methyl)-N-(3,5-dimethoxybenzyl)-4′-fluoro-2′-methyl-[1,1′-biphenyl]-3-carboxamide], in experiment [1], the GI50 is 310 nM. The Ki at WDR5 (setting [3]) was determined as 0.15 nM.
`COc1cc(OC)cc(C(NC(=O)c2cc(Cn3ccn(C)c3=N)cc(-c3ccnn3C(C)C)c2)C2CC2)c1` (stereo not shown) [Example 118, N-(Cyclopropyl(3,5-dimethoxyphenyl)methyl)-3-((2-imino-3-methyl-2,3-dihydro-1H-imidazol-1-yl)methyl)-5-(1-isopropyl-1H-pyrazol-5-yl)benzamide]: in experiment [1], the GI50 worked out at 6300 nM. Also, the inhibition constant (Ki) at WDR5 (setting [3]) was determined as 0.83 nM.
In the case of `Cc1cc([C@@H](NC(=O)c2cc(Cn3ccn(C)c3=N)cc(-c3cccnc3C(F)(F)F)n2)C2CC2)ccc1F` [Example 119, (S)—N-(Cyclopropyl(4-fluoro-3-methylphenyl)methyl)-4-((2-imino-3-methyl-2,3-dihydro-1H-imidazol-1-yl)methyl)-2′-(trifluoromethyl)-[2,3′-bipyridine]-6-carboxamide], the GI50 in experiment [1] was 7600 nM. Besides, the Ki at WDR5 (setting [3]) came out at 0.16 nM.
Turning to `Cc1ccnc([C@@H](NC(=O)c2cc(Cn3ccn(C)c3=N)cc(-c3ccc(F)cc3C(F)(F)F)c2F)C2CC2)c1` [Example 120, (S)—N-(Cyclopropyl(4-methylpyridin-2-yl)methyl)-2,4′-difluoro-5-((2-imino-3-methyl-2,3-dihydro-1H-imidazol-1-yl)methyl)-2′-(trifluoromethyl)-[1,1′-biphenyl]-3-carboxamide], the GI50 in experiment [1] amounted to 220 nM. The inhibition constant (Ki) at WDR5 (setting [3]) is under 0.1 nM.
On to `CC(=O)/N=c1\n(C)ccn1Cc1cc(C(=O)NCc2ccc(Cl)c(Cl)c2)cc(-c2ccc(F)nc2C)c1` [Example 121, (E)-3-((2-(acetylimino)-3-methyl-2,3-dihydro-1H-imidazol-1-yl)methyl)-N-(3,4-dichlorobenzyl)-5-(6-fluoro-2-methylpyridin-3-yl)benzamide], for which the GI50 in experiment [1] was 5900 nM. The Ki on WDR5 (setting [2]) was over 33 nM.
For `CCOC(=O)/N=c1\n(C)ccn1Cc1cc(C(=O)NCc2ccc(Cl)c(Cl)c2)cc(-c2ccc(F)nc2C)c1` [Example 122, Ethyl (1-(3-((3,4-dichlorobenzyl)carbamoyl)-5-(6-fluoro-2-methylpyridin-3-yl)benzyl)-3-methyl-1,3-dihydro-2H-imidazol-2-ylidene)carbamate], the GI50 in experiment [1] is 4200 nM. Further, the Ki on WDR5 (setting [2]) was over 33 nM.
Turning to `Cc1cc([C@@H](NC(=O)c2cc(Cn3ccn(C)c3=N)cc(-c3cn(C)nc3C(F)(F)F)c2)C2CC2)ccc1F` [Example 125, (S)—N-(Cyclopropyl(4-fluoro-3-methylphenyl)methyl)-3-((2-imino-3-methyl-2,3-dihydro-1H-imidazol-1-yl)methyl)-5-(1-methyl-3-(trifluoromethyl)-1H-pyrazol-4-yl)benzamide], the GI50 in experiment [1] came out at 180 nM. This compound also registered a Ki at WDR5 of under 0.1 nM.
For the compound `Cc1cc([C@@H](NC(=O)c2cc(Cn3ccn(C)c3=N)cc(-c3cccnc3OC(F)F)c2)C2CC2)ccc1F` [Example 127, (S)—N-(Cyclopropyl(4-fluoro-3-methylphenyl)methyl)-3-(2-(difluoromethoxy)pyridin-3-yl)-5-((2-imino-3-methyl-2,3-dihydro-1H-imidazol-1-yl)methyl)benzamide], the GI50 in experiment [1] amounted to 730 nM. The Ki on WDR5 (setting [3]) worked out at 0.21 nM.
